Laboratory results published in patent publication US20260345574A1, “POTENT AND SELECTIVE IRREVERSIBLE INHIBITORS OF IRAK1” (Dana-Farber Cancer Institute, Inc., priority 2022, published 2026).

Legend:
IRAK1 = IRAK1 (Homo sapiens, UniProt P51617); experiment: Adapta Universal Kinase Assay (ThermoFisher) against IRAK1; assay type: biochemical; details: Histone H3 (1-20) peptide substrate, 60 minutes at room temperature
Protocol: To measure the IC50 values of the compounds herein against IRAK1, the Adapta Universal Kinase Assay (ThermoFisher) was used. Briefly, 100 nL of different concentrations of the compounds in 100% DMSO were added to each well of a 384-well plate (Corning Cat. #4512). 2.4 μL of 30 mM HEPES, 2.5 μL of 4× ATP solution (in water), and 5 μL of 2× IRAK1/Histone H3 (1-20) peptide mixture (prepared in 50 mM HEPES pH 7.5, 0.01% BRIJ-35, 10 mM MgCl2, 1 mM EGTA) were added to each well. The plate was shaken for 30 seconds and centrifuged for 1 minute at 1000×g. The plate was then incubated at room temperature for 60 minutes. 5 μL of Detection Mix was added to each well. The plate was shaken for 30 seconds and centrifuged for 1 minute at 1000×g. The plate was then incubated at room temperature for 60 minutes. The plate was subsequently read on a fluorescence plate reader, and the emissions ratio was calculated to determine the ratio of ATP to ADP. Emissions Ratio=AF647 Emission (665 nm)/Europium Emission (615 nm).

IRAK4 = biological target: T1, IRAK4 (Homo sapiens, UniProt Q9NWZ3); experiment: Z'-LYTE assay (ThermoFisher) against IRAK4; assay type: biochemical; details: Ser/Thr 07 substrate, 60 minutes at room temperature
T1 sequence (Q9NWZ3 1-460): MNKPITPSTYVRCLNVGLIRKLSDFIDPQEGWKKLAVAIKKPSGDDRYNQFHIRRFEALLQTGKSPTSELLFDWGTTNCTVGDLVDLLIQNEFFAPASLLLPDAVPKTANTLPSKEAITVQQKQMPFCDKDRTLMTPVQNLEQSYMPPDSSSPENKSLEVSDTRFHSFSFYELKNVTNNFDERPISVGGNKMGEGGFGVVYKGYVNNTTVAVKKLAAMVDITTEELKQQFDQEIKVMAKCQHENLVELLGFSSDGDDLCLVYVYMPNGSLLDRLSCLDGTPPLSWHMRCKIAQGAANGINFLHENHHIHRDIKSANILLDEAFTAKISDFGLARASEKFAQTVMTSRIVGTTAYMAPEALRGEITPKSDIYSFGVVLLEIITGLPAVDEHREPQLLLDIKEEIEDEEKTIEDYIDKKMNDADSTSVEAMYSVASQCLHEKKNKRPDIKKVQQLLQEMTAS
Protocol: To measure the IC50 values of compounds herein against IRAK4, a Z′-LYTE assay (ThermoFisher) was used. Briefly, 2.5 μL of different concentrations of the compounds in 1% DMSO were added to 2.4 μL kinase buffer (50 mM HEPES pH 7.5, 0.01% BRIJ-35, 10 mM MgCl2, 1 mM EGTA) in each well of a 384-well plate (Corning Cat. #3676). 5 μL of 2× IRAK4/Ser/Thr 07 mixture (prepared in 50 mM HEPES pH 7.5, 0.01% BRIJ-35, 10 mM MnCl2, 2 mM DTT, and 0.02% NaN3) and 2.5 μL of 4× ATP solution (4× ATP, 50 mM HEPES, pH 7.5, 0.01% BRIJ-35, 10 mM MgCl2, 1 mM EGTA) were added to each well. The plate was shaken for 30 seconds, and then incubated at room temperature for 60 minutes. 5 μL of a 1:100000 dilution of Development Reagent A was added to each well. The plate was shaken for 30 seconds and incubated for 60 minutes at room temperature. The plate was subsequently read on a fluorescence plate reader, and the emissions ratio was calculated to determine the ratio of Ser/Thr 07 phosphorylated by the reaction. Emissions Ratio=Coumarin Emission (443 nm)/Flourescein Emission (520 nm).

IRAK1, sequence (P51617 whole entry): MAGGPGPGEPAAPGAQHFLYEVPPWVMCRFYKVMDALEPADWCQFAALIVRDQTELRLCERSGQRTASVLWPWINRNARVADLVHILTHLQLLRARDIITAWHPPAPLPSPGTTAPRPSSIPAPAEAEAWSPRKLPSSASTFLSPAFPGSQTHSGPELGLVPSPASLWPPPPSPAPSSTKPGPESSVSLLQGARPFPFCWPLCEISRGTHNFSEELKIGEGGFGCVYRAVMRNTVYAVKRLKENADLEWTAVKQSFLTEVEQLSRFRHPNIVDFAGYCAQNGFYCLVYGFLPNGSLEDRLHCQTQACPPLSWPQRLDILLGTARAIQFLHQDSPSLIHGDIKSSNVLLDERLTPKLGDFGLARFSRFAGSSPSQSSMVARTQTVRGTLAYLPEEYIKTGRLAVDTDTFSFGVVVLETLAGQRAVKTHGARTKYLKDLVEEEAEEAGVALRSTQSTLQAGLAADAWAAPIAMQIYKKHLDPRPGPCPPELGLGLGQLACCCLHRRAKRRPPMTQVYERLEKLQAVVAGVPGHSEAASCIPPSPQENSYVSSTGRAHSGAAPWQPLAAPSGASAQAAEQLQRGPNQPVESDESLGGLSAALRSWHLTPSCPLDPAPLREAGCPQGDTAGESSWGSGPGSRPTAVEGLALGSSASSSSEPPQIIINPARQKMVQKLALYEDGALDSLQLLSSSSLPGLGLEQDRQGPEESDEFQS

IC50 (IRAK1)	IC50 (IRAK4)	SMILES
4.46 nM	978 nM	C=CC(=O)N1CCC[C@H](c2nc(-c3ccc(NC(=O)c4cccc(-c5ccn[nH]5)n4)c(Cl)c3)no2)C1 [Compound 079, (S)-N-(4-(5-(1-acryloylpiperidin-3-yl)-1,2,4-oxadiazol-3-yl)-2-chlorophenyl)-6-(1H-pyrazol-5-yl)picolinamide]
8.25 nM	3620 nM	C=CC(=O)N1CCC[C@H](c2nc(-c3ccc(NC(=O)c4cccc(-c5ccn[nH]5)n4)c(C(F)(F)F)c3)no2)C1 [Compound 080, (S)-N-(4-(5-(1-acryloylpiperidin-3-yl)-1,2,4-oxadiazol-3-yl)-2-(trifluoromethyl)phenyl)-6-(1H-pyrazol-5-yl)picolinamide]
9 nM	794 nM	C=CC(=O)N1CCC[C@H](c2nc(-c3ccc(NC(=O)c4cccc(-c5ccn[nH]5)n4)c(OC(F)(F)F)c3)no2)C1 [Compound 081, (S)-N-(4-(5-(1-acryloylpiperidin-3-yl)-1,2,4-oxadiazol-3-yl)-2-(trifluoromethoxy)phenyl)-6-(1H-pyrazol-5-yl)picolinamide]
17.6 nM	> 10000 nM	C=CC(=O)N1C[C@@H](c2nc(-c3ccc(NC(=O)c4cccc(-c5ccn[nH]5)n4)cc3)no2)CC(F)(F)C1 [Compound 082]
209 nM	> 10000 nM	C=CC(=O)N1C[C@@H](c2nc(-c3ccc(NC(=O)c4cccc(-c5ccn[nH]5)n4)cc3)no2)C[C@H](C(F)(F)F)C1 [Compound 083]
1.67 nM	204 nM	C=CC(=O)N1CCC[C@H](c2nc(-c3ccc(NC(=O)c4cccc(-c5ccn[nH]5)n4)c(OC)c3)no2)C1 [Compound 084, (S)-N-(4-(5-(1-acryloylpiperidin-3-yl)-1,2,4-oxadiazol-3-yl)-2-methoxyphenyl)-6-(1H-pyrazol-5-yl)picolinamide]
6.82 nM	8750 nM	C=CC(=O)N1CCC[C@H](c2nc(-c3ccc(NC(=O)c4cccc(-c5[nH]ncc5C)n4)cc3)no2)C1 [Compound 085, (S)-N-(4-(5-(1-acryloylpiperidin-3-yl)-1,2,4-oxadiazol-3-yl)phenyl)-6-(4-methyl-1H-pyrazol-5-yl)picolinamide]
9.16 nM	> 10000 nM	C=CC(=O)N1CCC[C@H](c2nc(-c3ccc(NC(=O)c4cccc(-c5[nH]ncc5Cl)n4)cc3)no2)C1 [Compound 086, (S)-N-(4-(5-(1-acryloylpiperidin-3-yl)-1,2,4-oxadiazol-3-yl)phenyl)-6-(4-chloro-1H-pyrazol-5-yl)picolinamide]
5720 nM	> 10000 nM	C=CC(=O)N1CCC[C@H](c2nc(-c3ccc(NC(=O)c4cccc(-c5cc(C#N)n(C)c5)n4)cc3)no2)C1 [Compound 087]
12.7 nM	> 10000 nM	C=CC(=O)N1CCC[C@H](c2nc(-c3ccc(NC(=O)c4cccc(-c5[nH]ncc5C)n4)c(F)c3)no2)C1 [Compound 088, (S)-N-(4-(5-(1-acryloylpiperidin-3-yl)-1,2,4-oxadiazol-3-yl)-2-fluorophenyl)-6-(4-methyl-1H-pyrazol-5-yl)picolinamide]
21.1 nM	> 10000 nM	C=CC(=O)N1CCC[C@H](c2nc(-c3ccc(NC(=O)c4cccc(-c5[nH]ncc5Cl)n4)c(F)c3)no2)C1 [Compound 089, (S)-N-(4-(5-(1-acryloylpiperidin-3-yl)-1,2,4-oxadiazol-3-yl)-2-fluorophenyl)-6-(4-chloro-1H-pyrazol-5-yl)picolinamide]
6.62 nM	> 10000 nM	C=CC(=O)N1C[C@@H](c2nc(-c3ccc(NC(=O)c4cccc(-c5ccn[nH]5)n4)c(F)c3)no2)CC(F)(F)C1 [Compound 090, (S)-N-(4-(5-(1-acryloyl-5,5-difluoropiperidin-3-yl)-1,2,4-oxadiazol-3-yl)-2-fluorophenyl)-6-(1H-pyrazol-5-yl)picolinamide]
9.93 nM	> 10000 nM	C=CC(=O)N1CC(c2nc(-c3ccc(NC(=O)c4cccc(-c5[nH]ncc5Cl)n4)c(F)c3)no2)CC(F)(F)C1 (stereo not drawn) [Compound 092, N-(4-(5-(1-acryloyl-5,5-difluoropiperidin-3-yl)-1,2,4-oxadiazol-3-yl)-2-fluorophenyl)-6-(4-chloro-1H-pyrazol-5-yl)picolinamide]
8.3 nM	> 10000 nM	C=CC(=O)N1CC(c2nc(-c3ccc(NC(=O)c4cccc(-c5[nH]ncc5C)n4)c(F)c3)no2)CC(F)(F)C1 (stereo not drawn) [Compound 093, N-(4-(5-(1-acryloyl-5,5-difluoropiperidin-3-yl)-1,2,4-oxadiazol-3-yl)-2-fluorophenyl)-6-(4-methyl-1H-pyrazol-5-yl)picolinamide]
45.9 nM	> 10000 nM	C=CC(=O)N[C@@H]1CNC[C@H](c2nc(-c3ccc(NC(=O)c4cccc(-c5ccn[nH]5)n4)c(F)c3)no2)C1 [Compound 098, N-(4-(5-((3R,5S)-5-acrylamidopiperidin-3-yl)-1,2,4-oxadiazol-3-yl)-2-fluorophenyl)-6-(1H-pyrazol-5-yl)picolinamide]
